Values belong to the molecule of their own block, whether it stands above or below them.
System: 885512-296-R-J2-PDC complex spheroid viability
Test: Anticancer human tumor 885512-296-R-J2-PDC patient-derived breast carcinoma cell line growth inhibition [GQUAD]
Conditions: for IC50: curve of first compound; for viability, T/C: stronger effect = lower value
How it was run: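 Multi-cell-type spheroids of tumor cells with HUVEC and mesenchymal stem cells, treated with drug combinations. Concentrations descend in half-log steps from near clinical Cmax, or from 10 microM where Cmax is unknown; viability read-out.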

[1] = second compound 0.0316 µM, first compound 0.0316 µM
[2] = second compound 0.0316 µM, first compound 0.1 µM
[3] = second compound 0.0316 µM, first compound 0.316 µM
[4] = second compound 0.0316 µM, first compound 1 µM
[5] = second compound 0.0316 µM, first compound 3.16 µM
[6] = second compound 0.0316 µM, first compound 10 µM
[7] = second compound 0.1 µM, first compound 0.0316 µM
[8] = second compound 0.1 µM, first compound 0.1 µM
[9] = second compound 0.1 µM, first compound 0.316 µM
[10] = second compound 0.1 µM, first compound 1 µM
[11] = second compound 0.1 µM, first compound 3.16 µM
[12] = second compound 0.1 µM, first compound 10 µM
[13] = second compound 0.316 µM, first compound 0.0316 µM
[14] = second compound 0.316 µM, first compound 0.1 µM
[15] = second compound 0.316 µM, first compound 0.316 µM
[16] = second compound 0.316 µM, first compound 1 µM
[17] = second compound 0.316 µM, first compound 3.16 µM
[18] = second compound 0.316 µM, first compound 10 µM
[19] = second compound 1 µM, first compound 0.0316 µM
[20] = second compound 1 µM, first compound 0.1 µM
[21] = second compound 1 µM, first compound 0.316 µM
[22] = second compound 1 µM, first compound 1 µM
[23] = second compound 1 µM, first compound 3.16 µM
[24] = second compound 1 µM, first compound 10 µM
[25] = second compound 3.16 µM, first compound 0.0316 µM
[26] = second compound 3.16 µM, first compound 0.1 µM
[27] = second compound 3.16 µM, first compound 0.316 µM
[28] = second compound 3.16 µM, first compound 1 µM
[29] = second compound 3.16 µM, first compound 3.16 µM
[30] = second compound 3.16 µM, first compound 10 µM
[31] = second compound 10 µM, first compound 0.0316 µM
[32] = second compound 10 µM, first compound 0.1 µM
[33] = second compound 10 µM, first compound 0.316 µM
[34] = second compound 10 µM, first compound 1 µM
[35] = second compound 10 µM, first compound 3.16 µM
[36] = second compound 10 µM, first compound 10 µM
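Note: spheroids exposed to the compounds for one week.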
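Throughout, for viability, T/C: percent of tumor spheroid viability relative to DMSO vehicle control wells.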

IC50 (second compound 0.0316 µM): 274 nM | IC50 (second compound 0.1 µM): 125 nM | IC50 (second compound 0.316 µM): < 31.6 nM | IC50 (second compound 1 µM): < 31.6 nM | IC50 (second compound 3.16 µM): < 31.6 nM | IC50 (second compound 10 µM): < 31.6 nM
Compound: COc1ccc([C@@H](O)c2cc(-c3ncnc4cc(N5CCOCC5)ccc34)c(F)cc2Cl)nn1 + Cc1cnc(CNC(=O)c2c(=O)c3ccc(N4CCCN(C)CC4)nc3n3c2sc2ccccc23)cn1
viability, T/C [1]: 93.6% | viability, T/C [2]: 73.1% | viability, T/C [3]: 50% | viability, T/C [4]: 25.6% | viability, T/C [5]: 32% | viability, T/C [6]: 29.4% | viability, T/C [7]: 67.1% | viability, T/C [8]: 54.7% | viability, T/C [9]: 28.2% | viability, T/C [10]: 30% | viability, T/C [11]: 33.1% | viability, T/C [12]: 29.2% | viability, T/C [13]: 26.1% | viability, T/C [14]: 21.2% | viability, T/C [15]: 24.2% | viability, T/C [16]: 24.6% | viability, T/C [17]: 24.8% | viability, T/C [18]: 23.8% | viability, T/C [19]: 21.8% | viability, T/C [20]: 26.6% | viability, T/C [21]: 21.9% | viability, T/C [22]: 24.3% | viability, T/C [23]: 29.9% | viability, T/C [24]: 18.9% | viability, T/C [25]: 24.8% | viability, T/C [26]: 25.4% | viability, T/C [27]: 25.1% | viability, T/C [28]: 22.7% | viability, T/C [29]: 23.2% | viability, T/C [30]: 17.2% | viability, T/C [31]: 0.11% | viability, T/C [32]: 0.2% | viability, T/C [33]: 0.17% | viability, T/C [34]: 0.15% | viability, T/C [35]: 0.18% | viability, T/C [36]: 0.19%

Compound: CC(C)n1c(=O)n(C)c2cnc3cc(F)c(-c4ccc(OCCCN5CCCCC5)nc4)cc3c21 + Cc1[nH]c2ccc(F)cc2c1-c1nc2c3cccnc3c3ncccc3c2[nH]1
IC50 (second compound 0.0316 µM): > 10000 nM | IC50 (second compound 0.1 µM): > 10000 nM | IC50 (second compound 0.316 µM): > 10000 nM | IC50 (second compound 1 µM): 4450 nM | IC50 (second compound 3.16 µM): < 31.6 nM | IC50 (second compound 10 µM): < 31.6 nM | viability, T/C [1]: 84.4% | viability, T/C [2]: 82.5% | viability, T/C [3]: 83.2% | viability, T/C [4]: 103% | viability, T/C [5]: 112% | viability, T/C [6]: 98.9% | viability, T/C [7]: 92.1% | viability, T/C [8]: 92.3% | viability, T/C [9]: 88% | viability, T/C [10]: 104% | viability, T/C [11]: 104% | viability, T/C [12]: 122% | viability, T/C [13]: 89.1% | viability, T/C [14]: 77.6% | viability, T/C [15]: 89.7% | viability, T/C [16]: 90% | viability, T/C [17]: 103% | viability, T/C [18]: 67.3% | viability, T/C [19]: 48.6% | viability, T/C [20]: 68.2% | viability, T/C [21]: 63.9% | viability, T/C [22]: 66% | viability, T/C [23]: 68.8% | viability, T/C [24]: 19% | viability, T/C [25]: 7.3% | viability, T/C [26]: 8.5% | viability, T/C [27]: 13.1% | viability, T/C [28]: 10% | viability, T/C [29]: 10.8% | viability, T/C [30]: 1.66% | viability, T/C [31]: 1.24% | viability, T/C [32]: 4.55% | viability, T/C [33]: 2.57% | viability, T/C [34]: 2.18% | viability, T/C [35]: 2.19% | viability, T/C [36]: 1.31%

IC50 (second compound 0.0316 µM): 43.5 nM | IC50 (second compound 0.1 µM): 3.57 nM | IC50 (second compound 0.316 µM): < 0.999 nM | IC50 (second compound 1 µM): < 0.999 nM | IC50 (second compound 3.16 µM): < 0.999 nM | IC50 (second compound 10 µM): < 0.999 nM
Compound: Cn1ncnc1[C@H]1c2n[nH]c(=O)c3cc(F)cc(c23)N[C@@H]1c1ccc(F)cc1 + Cc1cnc(CNC(=O)c2c(=O)c3ccc(N4CCCN(C)CC4)nc3n3c2sc2ccccc23)cn1
viability, T/C (second compound 0.0316 µM, first compound 0.000999 µM): 89.2% | viability, T/C (second compound 0.0316 µM, first compound 0.00316 µM): 83.8% | viability, T/C (second compound 0.0316 µM, first compound 0.00999 µM): 73.5% | viability, T/C [1]: 57% | viability, T/C (second compound 0.0316 µM, first compound 0.0999 µM): 34.4% | viability, T/C [3]: 25.5% | viability, T/C (second compound 0.1 µM, first compound 0.000999 µM): 51.7% | viability, T/C (second compound 0.1 µM, first compound 0.00316 µM): 57.4% | viability, T/C (second compound 0.1 µM, first compound 0.00999 µM): 37.1% | viability, T/C [7]: 34% | viability, T/C (second compound 0.1 µM, first compound 0.0999 µM): 27.3% | viability, T/C [9]: 21.1% | viability, T/C (second compound 0.316 µM, first compound 0.000999 µM): 31.3% | viability, T/C (second compound 0.316 µM, first compound 0.00316 µM): 24% | viability, T/C (second compound 0.316 µM, first compound 0.00999 µM): 24.2% | viability, T/C [13]: 20.5% | viability, T/C (second compound 0.316 µM, first compound 0.0999 µM): 24% | viability, T/C [15]: 20.1% | viability, T/C (second compound 1 µM, first compound 0.000999 µM): 27.4% | viability, T/C (second compound 1 µM, first compound 0.00316 µM): 22.9% | viability, T/C (second compound 1 µM, first compound 0.00999 µM): 24.3% | viability, T/C [19]: 19.2% | viability, T/C (second compound 1 µM, first compound 0.0999 µM): 20% | viability, T/C [21]: 21.6% | viability, T/C (second compound 3.16 µM, first compound 0.000999 µM): 30.3% | viability, T/C (second compound 3.16 µM, first compound 0.00316 µM): 26.9% | viability, T/C (second compound 3.16 µM, first compound 0.00999 µM): 23.2% | viability, T/C [25]: 26.2% | viability, T/C (second compound 3.16 µM, first compound 0.0999 µM): 21.3% | viability, T/C [27]: 22.2% | viability, T/C (second compound 10 µM, first compound 0.000999 µM): 0.17% | viability, T/C (second compound 10 µM, first compound 0.00316 µM): 0.23% | viability, T/C (second compound 10 µM, first compound 0.00999 µM): 0.25% | viability, T/C [31]: 0.19% | viability, T/C (second compound 10 µM, first compound 0.0999 µM): 0.2% | viability, T/C [33]: 0.23%
